# Where two headings read alike, the source gives them in different places.
# Target: T1, Chk1 (Homo sapiens, UniProt O14757)
# T1 construct: purchased Upstate Biotechnology
# T1 sequence (O14757 1-476): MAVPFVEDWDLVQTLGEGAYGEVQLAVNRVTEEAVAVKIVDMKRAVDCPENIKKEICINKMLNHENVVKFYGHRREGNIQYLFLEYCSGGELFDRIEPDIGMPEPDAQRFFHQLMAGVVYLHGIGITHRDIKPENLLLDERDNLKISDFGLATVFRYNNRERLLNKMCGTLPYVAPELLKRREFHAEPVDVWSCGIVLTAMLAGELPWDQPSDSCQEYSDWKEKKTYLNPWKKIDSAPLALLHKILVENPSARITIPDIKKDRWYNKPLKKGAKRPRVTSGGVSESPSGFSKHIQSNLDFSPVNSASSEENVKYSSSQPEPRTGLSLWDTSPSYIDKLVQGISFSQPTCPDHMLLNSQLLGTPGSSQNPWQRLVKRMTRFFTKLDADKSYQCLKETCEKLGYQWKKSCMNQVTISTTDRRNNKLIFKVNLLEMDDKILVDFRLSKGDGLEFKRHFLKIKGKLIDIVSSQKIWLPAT
# Assay: Chk1 kinase assay: incorporation of γ-33P ATP into immobilized myelin basic protein
# Format: biochemical
# Details: read-out: Chk1 IC50
# Procedure, shortened: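 Immobilized-MBP radiometric kinase assay, room temperature for 1 h; ATP 10 μM (Chk1, 10 nM enzyme) or 30 μM (Chk2, 20 nM enzyme) with 33P tracer. Values are IC50s, with Ki derived from them.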
# [1] = Table 11, Chk1 only, class symbols A-D
IC50,"IC50 (Table 11, Chk1 only)",SMILES,other results
50 to 1000 nM,–,"CNC(=O)c1nc(-c2cccc(C(=O)N[C@H]3CCCc4ccccc43)c2)cnc1N [Example 161, 3-amino-N-methyl-6-(3-{[(1S)-1,2,3,4-tetrahydronaphthalen-1-ylamino]carbonyl}phenyl)pyrazine-2-carboxamide]",–
1000 to 10000 nM,–,"CNC(=O)c1nc(-c2cccc(OCCN3CCOCC3)c2)cnc1N [Example 185, 3-amino-N-methyl-6-{3-[(2-morpholin-4-ylethyl)oxy]phenyl}pyrazine-2-carboxamide]",–
–,–,"Nc1ncc(-c2cccc(C(=O)NCc3ccc(I)cc3)c2)nc1C(=O)N[C@H]1CCCNC1 [Example 880, 3-amino-6-[3-({[(4-iodophenyl)methyl]amino}carbonyl)phenyl]-N-[(3S)-piperidin-3-yl]pyrazine-2-carboxamide]",IC50 [1]: < 50 nM
–,≥ 10000 nM,"Nc1ncc(-c2cccc(C(=O)NCc3ccccc3)c2)nc1/C=N/NCc1ccccc1 [Example 675, 3-(5-amino-6-{(E)-[(phenylmethyl)hydrazono]methyl}pyrazin-2-yl)-N-(phenylmethyl)benzamide]",–
–,1000 to 10000 nM,"CN(C)CCCNC(=O)c1nc(-c2cccc(CN[C@H]3CCc4ccccc43)c2)cnc1N [Example 585, 3-amino-6-(3-{[(1S)-2,3-dihydro-1H-inden-1-ylamino]methyl}phenyl)-N-[3-(dimethylamino)propyl]pyrazine-2-carboxamide]",–
–,1000 to 10000 nM,"C/C(=N\NC(=N)N)c1nc(-c2cccc(C(=O)NCc3ccccc3)c2)cnc1N [Example 633, 3-(5-amino-6-{(1E)-N-[amino(imino)methyl]ethanehydrazonoyl}pyrazin-2-yl)-N-(phenylmethyl)benzamide]",–
–,50 to 1000 nM,"Nc1ncc(-c2cccc(CN[C@H]3CCc4ccccc43)c2)nc1-c1nnc(Cc2ccccc2)[nH]1 [Example 555, 5-(3-{[(1S)-2,3-dihydro-1H-inden-1-ylamino]methyl}phenyl)-3-[5-(phenylmethyl)-4H-1,2,4-triazol-3-yl]pyrazin-2-amine]",–
–,–,"Nc1ncc(-c2cccc(C(=O)NC(Cc3ccccc3)c3ccccc3)c2)nc1C(=O)N[C@H]1CCCNC1 (stereo partly drawn) [Example 866, 3-amino-6-(3-{[(1,2-diphenylethyl)amino]carbonyl}phenyl)-N-[(3S)-piperidin-3-yl]pyrazine-2-carboxamide]",IC50 [1]: < 50 nM
–,≥ 10000 nM,"CCNc1ncc(-c2cccc(C(=O)NCc3ccccc3)c2)nc1C(=O)N[C@H]1CCN(CC)C1 [Example 699, 3-(ethylamino)-N-[(3S)-1-ethylpyrrolidin-3-yl]-6-(3-{[(phenylmethyl)amino]carbonyl}phenyl)pyrazine-2-carboxamide]",–
–,50 to 1000 nM,"CNC(=O)c1nc(-c2cccc(CNC3CCc4cc(F)ccc43)c2)cnc1N (centres unmarked) [Example 464, 3-amino-6-(3-{[(5-fluoro-2,3-dihydro-1H-inden-1-yl)amino]methyl}phenyl)-N-methylpyrazine-2-carboxamide]",–
–,50 to 1000 nM,"CNC(=O)c1nc(-c2cc(C(=O)N[C@H]3CCc4ccccc43)cc(C(=O)OC)c2)cnc1N [Example 790, methyl 3-{5-amino-6-[(methylamino)carbonyl]pyrazin-2-yl}-5-{[(1S)-2,3-dihydro-1H-inden-1-ylamino]carbonyl}benzoate]",–
–,–,"Cc1nnsc1C(=O)NCc1cccc(-c2cnc(N)c(C(=O)N[C@H]3CCCNC3)n2)c1 [Example 991, 3-amino-6-[3-({[(4-methyl-1,2,3-thiadiazol-5-yl)carbonyl]amino}methyl)phenyl]-N-[(3S)-piperidin-3-yl]pyrazine-2-carboxamide]",IC50 [1]: < 50 nM
–,1000 to 10000 nM,"Nc1ncc(-c2cccc(CN[C@H]3CCc4ccccc43)c2)nc1C(=O)NCc1ccccc1 [Example 544, 3-amino-6-(3-{[(1S)-2,3-dihydro-1H-inden-1-ylamino]methyl}phenyl)-N-(phenylmethyl)pyrazine-2-carboxamide]",–
50 to 1000 nM,–,"CCN(CCOc1cccc(-c2cnc(N)c(C(=O)NC)n2)c1)Cc1ccccc1 [Example 178, 3-amino-6-[3-({2-[ethyl(phenylmethyl)amino]ethyl}oxy)phenyl]-N-methylpyrazine-2-carboxamide]",–
–,< 50 nM,"CNC(=O)c1nc(-c2cccc(CNC3CCc4c(-c5ccccc5)cccc43)c2)cnc1N (centres unmarked) [Example 493, 3-amino-N-methyl-6-(3-{[(4-phenyl-2,3-dihydro-1H-inden-1-yl)amino]methyl}phenyl)pyrazine-2-carboxamide]",–
50 to 1000 nM,–,"CNC(=O)c1nc(-c2cccc(CNC(=O)c3cc(C(F)(F)F)ccc3Cl)c2)cnc1N [Example 333, 3-amino-6-{3-[({[2-chloro-5-(trifluoromethyl)phenyl]carbonyl}amino)methyl]phenyl}-N-methylpyrazine-2-carboxamide]",–
50 to 1000 nM,–,"CNC(=O)c1nc(-c2cccc(C(=O)N[C@H]3CCc4ccccc43)c2)cnc1N [Example 97, 3-amino-6-(3-{[(1S)-2,3-dihydro-1H-inden-1-ylamino]carbonyl}phenyl)-N-methylpyrazine-2-carboxamide]",–
–,–,"COCCNC(=O)c1cccc(-c2cnc(N)c(C(=O)N[C@H]3CCCNC3)n2)c1 [Example 879, 3-amino-6-[3-({[2-(methyloxy)ethyl]amino}carbonyl)phenyl]-N-[(3S)-piperidin-3-yl]pyrazine-2-carboxamide]",IC50 [1]: 50 to 1000 nM
50 to 1000 nM,–,"CNC(=O)c1nc(-c2cccc(C(=O)NCc3cc(Cl)cc(Cl)c3)c2)cnc1N [Example 276, 3-amino-6-[3-({[(3,5-dichlorophenyl)methyl]amino}carbonyl)phenyl]-N-methylpyrazine-2-carboxamide]",–
–,50 to 1000 nM,"CNC(=O)c1nc(-c2cccc(CNC3CCc4cc(F)c(F)cc43)c2)cnc1N (centres unmarked) [Example 476, 3-amino-6-(3-{[(5,6-difluoro-2,3-dihydro-1H-inden-1-yl)amino]methyl}phenyl)-N-methylpyrazine-2-carboxamide]",–
–,–,"Nc1ncc(-c2cccc(C(=O)NCc3ccc(F)c(F)c3)c2)nc1C(=O)N[C@H]1CCCNC1 [Example 1011, 3-amino-6-[3-({[(3,4-difluorophenyl)methyl]amino}carbonyl)phenyl]-N-[(3S)-piperidin-3-yl]pyrazine-2-carboxamide]",IC50 [1]: < 50 nM
1000 to 10000 nM,–,"CNC(=O)c1nc(-c2cccc(-c3noc(CCc4ccccc4)n3)c2)cnc1N [Example 138, 3-amino-N-methyl-6-{3-[5-(2-phenylethyl)-1,2,4-oxadiazol-3-yl]phenyl}pyrazine-2-carboxamide]",–
1000 to 10000 nM,–,"CNC(=O)c1nc(-c2cccc(NS(C)(=O)=O)c2)cnc1N [Example 82, 3-amino-N-methyl-6-{3-[(methylsulfonyl)amino]phenyl}pyrazine-2-carboxamide]",–
50 to 1000 nM,–,"CNC(=O)c1nc(-c2cccc(CNCc3cc(F)ccc3F)c2)cnc1N [Example 388, 3-amino-6-[3-({[(2,5-difluorophenyl)methyl]amino}methyl)phenyl]-N-methylpyrazine-2-carboxamide]",–
–,50 to 1000 nM,"Nc1ncc(-c2cccc(C(=O)N[C@H]3CCc4ccccc43)c2)nc1C(=O)N[C@@H]1CCNC1 [Example 645, 3-amino-6-(3-{[(1S)-2,3-dihydro-1H-inden-1-ylamino]carbonyl}phenyl)-N-[(3R)-pyrrolidin-3-yl]pyrazine-2-carboxamide]",–
–,< 50 nM,"Nc1ncc(-c2cccc(C(=O)N[C@@H]3c4ccccc4C[C@@H]3O)c2)nc1C(=O)NC1CCCNCC1 (stereo partly drawn) [Example 782, 3-amino-N-azepan-4-yl-6-[3-({[(1R,2S)-2-hydroxy-2,3-dihydro-1H-inden-1-yl]amino}carbonyl)phenyl]pyrazine-2-carboxamide]",–
